Results on two compounds are retold here after patent publication US6423688B1, “Dipeptide and related compounds which inhibit leukocyte adhesion mediated by VLA-4” (Athena Neurosciences, Inc., priority 1997, dated 2002).

In general, melting point refers to the temperature of the solid-liquid transition.

Peptide text beside a SMILES is read from it. * marks the point of attachment. Tos = Cc1ccc(S(=O)(=O)*)cc1

`Cc1ccc(S(=O)(=O)N2CCC[C@H]2C(=O)N[C@@H](CCC(N)=O)C(=O)O)cc1` [Example 5, N-(Toluene-4-sulfonyl)-L-prolyl-L-glutamine] (Tos-Pro-Gln-OH) returned a melting point of 45 to 55 °C. `Cc1ccc(S(=O)(=O)N2CCC[C@H]2C(=O)N[C@@H](CC(N)=O)C(=O)O)cc1` [Example 2, N-(Toluene-4-sulfonyl)-L-prolyl-L-asparagine] (Tos-Pro-Asn-OH): the melting point lay within 178 to 180 °C.
